Where two headings read alike, the source gives them in different places.
Target: T1, Endothelial lipase (EL) (Homo sapiens, UniProt Q9Y5X9)
T1 construct: HT-1080 cells, which were transformed by RAGE technology (Athersys) to overexpress endogenous EL; endogenous in cells; conditioned medium used as the enzyme source
T1 sequence (Q9Y5X9 21-500): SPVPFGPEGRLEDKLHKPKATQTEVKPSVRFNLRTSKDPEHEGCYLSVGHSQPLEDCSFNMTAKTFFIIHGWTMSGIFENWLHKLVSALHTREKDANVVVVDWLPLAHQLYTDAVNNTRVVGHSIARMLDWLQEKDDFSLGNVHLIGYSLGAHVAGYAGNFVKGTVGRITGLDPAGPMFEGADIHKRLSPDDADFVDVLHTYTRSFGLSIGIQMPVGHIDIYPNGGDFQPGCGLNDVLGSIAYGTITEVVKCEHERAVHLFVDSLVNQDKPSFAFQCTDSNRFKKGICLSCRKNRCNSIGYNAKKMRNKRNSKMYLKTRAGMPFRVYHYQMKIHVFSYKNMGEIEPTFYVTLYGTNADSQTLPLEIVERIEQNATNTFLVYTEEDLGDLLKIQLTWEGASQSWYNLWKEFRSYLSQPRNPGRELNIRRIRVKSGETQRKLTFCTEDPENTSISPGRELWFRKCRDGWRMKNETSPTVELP
Assay: Endothelial lipase (EL) enzymatic assay with fluorescent substrate A10070 in DMPG vesicles
Type: biochemical
Procedure, shortened: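 The enzyme source was conditioned medium from HT-1080 cells engineered to overexpress endogenous EL. It was preincubated with compound for 20 min at 37 °C in 50 mM HEPES pH 8.0, 50 mM NaCl, 1 mM CaCl2. Reactions started with DMPG vesicles carrying FRET substrate A10070 (mole fraction 0.05). The rate was taken from the linear slope of fluorescence (ex 488/em 530 nm) over 10 min.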

[1] = range observed in the EL assay, read-out: EL IC50 values
[2] = conditioned media from HT-1080 cells overexpressing endogenous EL, 20 min preincubation at 37° C., read-out: EL IC50

SMILES | IC50 [1] [µM] | IC50 [2] [µM]
COC(=O)[C@@H]1C[C@H](NC(=O)c2[nH]c(=O)[nH]c(=O)c2N)c2ccccc21 [Example 12, (1R,3S)-methyl 3-(5-amino-2,6-dioxo-1,2,3,6-tetrahydropyrimidine-4-carboxamido)-2,3-dihydro-1H-indene-1-carboxylate] | ≤ 10 | –
Nc1c(C(=O)NC2CCC(c3cccc(OCc4ccccc4)c3)C2)[nH]c(=O)[nH]c1=O (single isomer, unassigned) [Example 155, 5-amino-N-(3-(3-(benzyloxy)phenyl)cyclopentyl)-2,6-dioxo-1,2,3,6-tetrahydropyrimidine-4 carboxamide] | ≤ 10 | –
CS(=O)(=O)N1CCC(NC(=O)c2[nH]c(=O)[nH]c(=O)c2N)c2ccccc21 (single isomer, unassigned; enantiomer b) [Example 196, 5-amino-N-(1-(methylsulfonyl)-1,2,3,4-tetrahydroquinolin-4-yl)-2,6-dioxo-1,2,3,6-tetrahydropyrimidine-4-carboxamide (Enantiomer B)] | ≤ 10 | –
Nc1c(C(=O)N[C@H]2CC[C@@H](c3ccc(-c4ccccc4)cc3)C2)[nH]c(=O)[nH]c1=O [Example 167, 5-amino-N-((1S,3R)-3-(biphenyl-4-yl)cyclopentyl)-2,6-dioxo-1,2,3,6-tetrahydropyrimidine-4-carboxamide] | ≤ 10 | –
Nc1c(C(=O)N[C@@H]2CCCc3c(OCc4ccccc4)cccc32)[nH]c(=O)[nH]c1=O [Example 82, (R)-5-amino-N-(5-(benzyloxy)-1,2,3,4-tetrahydronaphthalen-1-yl)-2,6-dioxo-1,2,3,6-tetrahydropyrimidine-4-carboxamide] | ≤ 10 | –
Nc1c(C(=O)N[C@H]2CC[C@@H](c3ccc(-c4ccccc4CO)cc3)C2)[nH]c(=O)[nH]c1=O [Example 174, 5-amino-N-((1S,3R)-3-(2′-(hydroxymethyl)biphenyl-4-yl)cyclopentyl)-2,6-dioxo-1,2,3,6-tetrahydropyrimidine-4-carboxamide] | ≤ 10 | –
Nc1c(C(=O)N[C@H]2CC[C@@H](NC(=O)Nc3ccccc3)CC2)[nH]c(=O)[nH]c1=O [Example 118, 5-amino-2,6-dioxo-N-(cis-4-(3-phenylureido)cyclohexyl)-1,2,3,6-tetrahydropyrimidine-4-carboxamide] | ≤ 10 | –
CC1C(NC(=O)c2[nH]c(=O)[nH]c(=O)c2N)CC2(C(C)C)CC12 (centres unmarked) [Example 57, 5-amino-N-(1-isopropyl-4-methylbicyclo[3.1.0]hexan-3-yl)2,6-dioxo-1,2,3,6-tetrahydropyrimidine-4-carboxamide] | ≤ 10 | 4.89
O=C(N[C@@H]1CCCc2c(NCc3ccccc3)cccc21)c1[nH]c(=O)[nH]c(=O)c1O [Example 286, (R)-N-(5-(benzylamino)-1,2,3,4-tetrahydronaphthalen-1-yl)-5-hydroxy-2,6-dioxo-1,2,3,6-tetrahydropyrimidine-4-carboxamide] | ≤ 10 | –
Nc1c(C(=O)N[C@@H]2CC[C@H](c3ccc(Cl)c(Cl)c3)C2)[nH]c(=O)[nH]c1=O [Example 74, 5-amino-N-((1R,3S)-3-(3,4-dichlorophenyl)cyclopentyl)-2,6-dioxo-1,2,3,6-tetrahydropyrimidine-4-carboxamide] | ≤ 10 | –
O=C(Cn1c(=O)[nH]c(C(=O)N[C@H]2CC[C@@H](c3ccccc3)CC2)c(O)c1=O)N[C@H]1CC[C@@H](c2ccccc2)CC1 [Example 268, 5-Hydroxy-2,6-dioxo-1-(2-oxo-2-((cis-4-phenylcyclohexyl)amino)ethyl)-N-(cis-4-phenylcyclohexyl)-1,2,3,6-tetrahydropyrimidine-4-carboxamide] | ≤ 10 | –
Nc1c(C(=O)N[C@@H]2CCCc3c(NS(=O)(=O)c4ccccc4)cccc32)[nH]c(=O)[nH]c1=O [Example 125, (R)-5-amino-2,6-dioxo-N-(5-(phenylsulfonamido)-1,2,3,4-tetrahydronaphthalen-1-yl)-1,2,3,6-tetrahydropyrimidine-4-carboxamide] | ≤ 10 | 0.329
CCn1c(=O)c(O)c(C(=O)N[C@H]2CC[C@@H](c3ccccc3)CC2)n(Cc2ccccc2)c1=O [Example 240, 3-Benzyl-1-ethyl-5-hydroxy-2,6-dioxo-N-(cis-4-phenylcyclohexyl)-1,2,3,6-tetrahydropyrimidine-4-carboxamide] | ≤ 10 | 0.024
COc1ccc2c(c1)CCCC2NC(=O)c1[nH]c(=O)[nH]c(=O)c1N (centres unmarked) [Example 31, 5-amino-N-(6-methoxy-1,2,3,4-tetrahydronaphthalen-1-yl)-2,6-dioxo-1,2,3,6-tetrahydropyrimidine-4-carboxamide] | ≤ 10 | –
O=C(NC1CCCc2c(-c3ccccc3)cccc21)c1[nH]c(=O)[nH]c(=O)c1O (centres unmarked) [Example 285, 5-hydroxy-2,6-dioxo-N-(5-phenyl-1,2,3,4-tetrahydronaphthalen-1-yl)-1,2,3,6-tetrahydropyrimidine-4-carboxamide] | ≤ 10 | –
O=C(N[C@H]1CCCc2c(OCC(F)(F)F)cccc21)c1[nH]c(=O)[nH]c(=O)c1O [Example 246, (S)-5-hydroxy-2,6-dioxo-N-(5-(2,2,2-trifluoroethoxy)-1,2,3,4-tetrahydronaphthalen-1-yl)-1,2,3,6-tetrahydropyrimidine-4-carboxamide] | ≤ 10 | –
Nc1c(C(=O)NC2CCN(c3ncnc4[nH]ncc34)C2)[nH]c(=O)[nH]c1=O (centres unmarked) [Example 189, N-(1-(1H-pyrazolo[3,4-d]pyrimidin-4-yl)pyrrolidin-3-yl)-5-amino-2,6-dioxo-1,2,3,6-tetrahydropyrimidine-4-carboxamide] | ≤ 10 | 0.641
Cn1c(=O)[nH]c(C(=O)N[C@H]2CC[C@@H](c3ccccc3)CC2)c(O)c1=O [Example 242, 5-hydroxy-1-methyl-2,6-dioxo-N-(cis-4-phenylcyclohexyl)-1,2,3,6-tetrahydropyrimidine-4-carboxamide] | ≤ 10 | –
COCCOc1ccc(C(=O)N[C@H]2CC[C@@H](NC(=O)c3[nH]c(=O)[nH]c(=O)c3N)CC2)cc1 [Example 120, 5-amino-N-(cis-4-(4-(2-methoxyethoxy)benzamido)cyclohexyl)-2,6-dioxo-1,2,3,6-tetrahydropyrimidine-4-carboxamide] | ≤ 10 | –
Nc1c(C(=O)N[C@@H]2CCc3cc(Br)ccc32)[nH]c(=O)[nH]c1=O [Example 65, (R)-5-amino-N-(5-bromo-2,3-dihydro-1H-inden-1-yl)-2,6-dioxo-1,2,3,6-tetrahydropyrimidine-4-carboxamide] | ≤ 10 | –
CCn1c(=O)[nH]c(C(=O)N[C@H]2CC[C@@H](c3ccccc3)CC2)c(O)c1=O [Example 239, 1-Ethyl-5-hydroxy-2,6-dioxo-N-(cis-4-phenylcyclohexyl)-1,2,3,6-tetrahydropyrimidine-4-carboxamide] | ≤ 10 | –
O=C(N[C@H]1CCCc2ccccc21)c1[nH]c(=O)[nH]c(=O)c1O [Example 245, (S)-5-hydroxy-2,6-dioxo-N-(1,2,3,4-tetrahydronaphthalen-1-yl)-1,2,3,6-tetrahydropyrimidine-4-carboxamide] | ≤ 10 | –
